# Tested on: SW480
# Assay: drug sensitivity score (DSS, integrated dose-response area); higher = more sensitive (stronger viability reduction); extreme values may be limits of the assay
# In short: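 The drug sensitivity score is the integrated area under a fitted non-linear dose–response model. It was derived from SW480 cells with doxycycline-inducible control or SND1-targeting shRNA, induced with 0.1 µg/mL doxycycline for 7 days and plated at 1000 cells per well on 384-well plates of 525 commercially available small-molecule inhibitors at five concentrations. CellTiter-Glo measured viability after 72 h.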
# [1] = shRNA: SND1 shRNA1 (SND1 silenced)
# [2] = shRNA: SND1 shRNA2 (SND1 silenced)
# [3] = shRNA: control shRNA (non-targeting)
structure (smiles),measurement,setting,value
CC(=O)NCC(=O)N1[C@@H]2CC[C@H]1c1ccc(Nc3ncc(C(F)(F)F)c(NC4CCC4)n3)cc12,drug sensitivity score,[1],17.4 DSS
same,drug sensitivity score,[2],14.2 DSS
same,drug sensitivity score,[3],13.2 DSS
CC(C)(C)C[C@@H]1N[C@@H](C(=O)N[C@H]2CC[C@H](O)CC2)[C@H](c2cccc(Cl)c2F)[C@]12C(=O)Nc1cc(Cl)ccc12,drug sensitivity score,[1],1.3 DSS
same,drug sensitivity score,[2],1.9 DSS
same,drug sensitivity score,[3],3.3 DSS
CC(C)CC(=O)Nc1n[nH]c2c1CN(C(=O)C1CCN(C)CC1)C2(C)C,drug sensitivity score,[1],6.1 DSS
same,drug sensitivity score,[2],5.8 DSS
same,drug sensitivity score,[3],10.7 DSS
CC(C)Oc1ccc(C(=O)N[C@H](CNC(=O)CN(C)C)Cc2ccc(-c3cn4cccc([C@H](C)O)c4n3)cc2)cc1Cl,drug sensitivity score,[1],13.1 DSS
same,drug sensitivity score,[2],12 DSS
same,drug sensitivity score,[3],13.3 DSS
CCNC(=O)C[C@@H]1N=C(c2ccc(Cl)cc2)c2cc(OC)ccc2-n2c(C)nnc21,drug sensitivity score,[1],2.7 DSS
same,drug sensitivity score,[2],0 DSS
same,drug sensitivity score,[3],0.6 DSS
CCOc1ccn(-c2ccc(F)cc2)c(=O)c1C(=O)Nc1ccc(Oc2ccnc(N)c2Cl)c(F)c1,drug sensitivity score,[1],1.9 DSS
same,drug sensitivity score,[2],8.3 DSS
same,drug sensitivity score,[3],6.5 DSS
CCc1cc(Nc2nccc(-c3c(-c4ccc(OC)c(C(=O)Nc5c(F)cccc5F)c4)nc4ccccn34)n2)c(OC)cc1N1CCC(N2CCN(S(C)(=O)=O)CC2)CC1,drug sensitivity score,[1],0.2 DSS
same,drug sensitivity score,[2],2.1 DSS
same,drug sensitivity score,[3],0 DSS
CCc1cncnc1N1CCN(Cc2nc3ccc(C(F)(F)F)cc3[nH]2)CC1,drug sensitivity score,[1],0.3 DSS
same,drug sensitivity score,[2],2.9 DSS
same,drug sensitivity score,[3],2 DSS
CCn1c(-c2nonc2N)nc2c(C#CC(C)(C)O)ncc(OC[C@H]3CCCNC3)c21,drug sensitivity score,[1],0.9 DSS
same,drug sensitivity score,[3],2 DSS
CCn1c(-c2nonc2N)nc2cnc(Oc3cccc(NC(=O)c4ccc(OCCN5CCOCC5)cc4)c3)cc21,drug sensitivity score,[1],4.8 DSS
same,drug sensitivity score,[2],5.2 DSS
same,drug sensitivity score,[3],5.5 DSS
CCn1c(C(=O)N(C2CC2)C2CC2)cc2c3c(ncn3C)c(Nc3cc(C)n(C)n3)nc21,drug sensitivity score,[1],0 DSS
same,drug sensitivity score,[2],0 DSS
same,drug sensitivity score,[3],0 DSS
CCn1cc(-c2ccnc3[nH]c(-c4cccc(CN(C)C)c4)cc23)c(-c2ccc(NC(=O)N(C)C)cc2)n1,drug sensitivity score,[1],7.8 DSS
same,drug sensitivity score,[2],9.5 DSS
same,drug sensitivity score,[3],10.2 DSS
CN(c1ccccc1CNc1nc(Nc2ccc3c(c2)CC(=O)N3)ncc1C(F)(F)F)S(C)(=O)=O,drug sensitivity score,[1],9.7 DSS
same,drug sensitivity score,[2],8.3 DSS
same,drug sensitivity score,[3],9.2 DSS
CN(c1ncccc1CNc1nc(Nc2ccc3c(c2)CC(=O)N3)ncc1C(F)(F)F)S(C)(=O)=O,drug sensitivity score,[1],4.9 DSS
same,drug sensitivity score,[2],3.5 DSS
same,drug sensitivity score,[3],3.4 DSS
CN1CCC(COc2cnc(-c3cccc(Cn4nc(-c5cccc(C#N)c5)ccc4=O)c3)nc2)CC1,drug sensitivity score,[1],0 DSS
same,drug sensitivity score,[2],0 DSS
same,drug sensitivity score,[3],0 DSS
CNC(=O)c1ccc(C)c(-n2c(C)cc(OCc3ccc(F)cc3F)c(Br)c2=O)c1,drug sensitivity score,[1],0 DSS
same,drug sensitivity score,[2],1 DSS
same,drug sensitivity score,[3],0 DSS
CNC(=O)c1ccccc1Nc1nc(Nc2ccc3c(c2OC)CCC[C@H](N2CCN(CCO)CC2)C3)ncc1Cl,drug sensitivity score,[1],3.9 DSS
same,drug sensitivity score,[2],3.5 DSS
same,drug sensitivity score,[3],5.5 DSS
CNc1nc(-c2ccc3c(N)n[nH]c3c2)cc(N2C[C@@H](C(=O)NC3CCCCC3)CC[C@H]2C)n1,drug sensitivity score,[1],4.7 DSS
same,drug sensitivity score,[2],4.2 DSS
same,drug sensitivity score,[3],3.8 DSS
CNc1ncc2cc(-c3cc(NC(=O)NCCC(C)(C)C)c(F)cc3C)c(C)nc2n1,drug sensitivity score,[1],13.4 DSS
same,drug sensitivity score,[2],6.6 DSS
same,drug sensitivity score,[3],9.7 DSS
COCC(=O)NC/C=C/c1ccc2ncnc(Nc3ccc(Oc4ccc(C)nc4)c(C)c3)c2c1,drug sensitivity score,[1],3.4 DSS
same,drug sensitivity score,[3],3.2 DSS
COc1cc2ncnc(Oc3cccc(NC(=O)Nc4cc(C(C)(C)C(F)(F)F)on4)c3)c2cc1OC,drug sensitivity score,[1],4.5 DSS
same,drug sensitivity score,[2],0 DSS
same,drug sensitivity score,[3],4.2 DSS
COc1ccc(-c2cc3c(C)nc(N)nc3n([C@H]3CC[C@H](OCCO)CC3)c2=O)cn1,drug sensitivity score,[1],17.3 DSS
same,drug sensitivity score,[2],13.9 DSS
same,drug sensitivity score,[3],9.3 DSS
COc1ccc(Cn2ccc3ccc(C(=O)NO)cc32)cc1,drug sensitivity score,[1],3.3 DSS
same,drug sensitivity score,[2],5.3 DSS
same,drug sensitivity score,[3],1.8 DSS
CS(=O)(=O)N1CCc2c(-c3cnc(N)nc3)nc(N3CCOCC3)nc21,drug sensitivity score,[1],7 DSS
same,drug sensitivity score,[2],6.4 DSS
same,drug sensitivity score,[3],4.2 DSS
C[C@@H](Oc1cc(-n2cnc3ccc(CN4CCN(C)CC4)cc32)sc1C(N)=O)c1ccccc1C(F)(F)F,drug sensitivity score,[1],25.1 DSS
same,drug sensitivity score,[3],23.6 DSS
C[C@@H](Oc1ccc2[nH]nc(/C=C/c3cnn(CCO)c3)c2c1)c1c(Cl)cncc1Cl,drug sensitivity score,[1],8.9 DSS
same,drug sensitivity score,[2],3.6 DSS
same,drug sensitivity score,[3],4.2 DSS
C[C@@]1(C(=O)Nc2ccc(F)nc2)CCCN1c1nc(Nc2cc(C3CC3)n[nH]2)c2cccn2n1,drug sensitivity score,[1],8.1 DSS
same,drug sensitivity score,[2],4.6 DSS
same,drug sensitivity score,[3],2.4 DSS
C[C@H]1Oc2cc(cnc2N)-c2c(nn(C)c2C#N)CN(C)C(=O)c2ccc(F)cc21,drug sensitivity score,[1],0.2 DSS
same,drug sensitivity score,[2],0.4 DSS
same,drug sensitivity score,[3],1.9 DSS
Cc1c(Cn2c(C)nc3c(C(=O)O)cc(N4CCOCC4)cc32)cccc1C(F)(F)F,drug sensitivity score,[1],2 DSS
same,drug sensitivity score,[2],3.3 DSS
same,drug sensitivity score,[3],0.8 DSS
Cc1c(NC(=O)OC[C@@H]2COCCN2)cn2ncnc(Nc3ccc4c(cnn4Cc4cccc(F)c4)c3)c12,drug sensitivity score,[1],2 DSS
same,drug sensitivity score,[2],3.1 DSS
same,drug sensitivity score,[3],4 DSS
Cc1ccc(C(=O)N(CCCN)[C@@H](c2oc3cc(Cl)ccc3c(=O)c2Cc2ccccc2)C(C)C)cc1,drug sensitivity score,[1],2.9 DSS
same,drug sensitivity score,[2],3.7 DSS
same,drug sensitivity score,[3],5.5 DSS
Cc1ccc2nc(CN(CCN(Cc3nc4ccc(C)cc4[nH]3)Cc3nc4ccc(C)cc4[nH]3)Cc3nc4ccc(C)cc4[nH]3)[nH]c2c1,drug sensitivity score,[1],1.5 DSS
same,drug sensitivity score,[2],1.3 DSS
same,drug sensitivity score,[3],2.1 DSS
Cc1cccc(CC(=O)N2CCc3c2ccc(-c2cn(C)c4ncnc(N)c24)c3F)n1,drug sensitivity score,[1],0 DSS
same,drug sensitivity score,[2],3.3 DSS
same,drug sensitivity score,[3],0 DSS
Cc1nc(Nc2n[nH]c3c2CN(C(=O)N[C@H](CN(C)C)c2ccccc2)C3(C)C)c2sccc2n1,drug sensitivity score,[1],14.9 DSS
same,drug sensitivity score,[2],13.7 DSS
same,drug sensitivity score,[3],16.5 DSS
Cc1ncc(Cl)cc1NCc1ccc(C(=O)N[C@@H](CC2CCCC2)C(=O)NC2CC2)s1,drug sensitivity score,[1],0 DSS
same,drug sensitivity score,[2],0 DSS
same,drug sensitivity score,[3],0.3 DSS
Cc1nn(C)c(COc2ccc(N3CCN(S(=O)(=O)N(C)C)CC3)cc2)c1-c1cccc2c(CCCOc3cccc4ccccc34)c(C(=O)O)n(CCN3CCOCC3)c12,drug sensitivity score,[1],4.9 DSS
same,drug sensitivity score,[2],4.4 DSS
same,drug sensitivity score,[3],5.7 DSS
Cn1cc(-c2ccc3nnc(C(F)(F)c4ccc5ncccc5c4)n3n2)cn1,drug sensitivity score,[1],0 DSS
same,drug sensitivity score,[2],0 DSS
same,drug sensitivity score,[3],1.3 DSS
Cn1cc(C2=Nc3cc(NC(=O)C(N)C4CCCCC4)cc4c3C2=CNNC4=O)cn1 (stereo not drawn),drug sensitivity score,[1],8.3 DSS
same,drug sensitivity score,[2],8.3 DSS
same,drug sensitivity score,[3],10.7 DSS
N#Cc1ccc(COC[C@H]2O[C@@H](n3c(NCc4ccc(Cl)c(Cl)c4)nc4c(N)ncnc43)[C@H](O)[C@@H]2O)cc1,drug sensitivity score,[1],0 DSS
same,drug sensitivity score,[2],0 DSS
same,drug sensitivity score,[3],0.1 DSS
NCC(=O)Nc1ccc(-n2nc(C(F)(F)F)cc2-c2ccc3c(ccc4ccccc43)c2)cc1,drug sensitivity score,[1],10 DSS
same,drug sensitivity score,[2],5.3 DSS
same,drug sensitivity score,[3],7.5 DSS
NC[C@@](O)(c1ccc(Cl)cc1)c1ccc(-c2cn[nH]c2)cc1,drug sensitivity score,[1],8 DSS
same,drug sensitivity score,[2],4.7 DSS
same,drug sensitivity score,[3],10.2 DSS
Nc1nccc(-c2c(-c3ccc(F)cc3)ncn2C2CCCCC2)n1,drug sensitivity score,[1],0.8 DSS
same,drug sensitivity score,[2],0.4 DSS
same,drug sensitivity score,[3],0.8 DSS
Nc1ncnc2c1c(COc1cccc(Cl)c1)nn2C1CCOCC1,drug sensitivity score,[1],0 DSS
same,drug sensitivity score,[2],0.1 DSS
same,drug sensitivity score,[3],0 DSS
O=C(NC[C@H](O)CN1CCc2ccccc2C1)c1cc(NC2COC2)ncn1,drug sensitivity score,[1],0 DSS
same,drug sensitivity score,[2],0 DSS
same,drug sensitivity score,[3],0.2 DSS
O=C(NOCC1CC1)c1ccc(F)c(F)c1Nc1ccc(I)cc1Cl,drug sensitivity score,[1],16.4 DSS
same,drug sensitivity score,[2],7.4 DSS
same,drug sensitivity score,[3],10.5 DSS
O=C(NOC[C@H](O)CO)c1ccc(F)c(F)c1Nc1ccc(I)cc1F,drug sensitivity score,[1],17.9 DSS
same,drug sensitivity score,[2],8.2 DSS
same,drug sensitivity score,[3],9.5 DSS
O=C(Nc1ccc2[nH]nc(-c3ccncc3)c2c1)[C@@H]1CCN(CC(=O)N2CCN(c3ccc(-c4ncccn4)cc3)CC2)C1,drug sensitivity score,[1],14.2 DSS
same,drug sensitivity score,[2],8.8 DSS
same,drug sensitivity score,[3],7.9 DSS
O=C(O)c1ccc(-c2c[nH]c3ncc(-c4ccccc4)cc23)cc1C1CCCC1,drug sensitivity score,[1],1.9 DSS
same,drug sensitivity score,[2],3.3 DSS
same,drug sensitivity score,[3],3.4 DSS
O=C(O)c1ccc(CN2CCC(CN[C@@H]3C[C@H]3c3ccccc3)CC2)cc1,drug sensitivity score,[1],0 DSS
same,drug sensitivity score,[2],8 DSS
same,drug sensitivity score,[3],1.2 DSS
O=C1NC(=O)/C(=C/c2ccc3nccc(-c4ccncc4)c3c2)S1,drug sensitivity score,[1],7.6 DSS
same,drug sensitivity score,[3],5.9 DSS
O=c1[nH]c(C2CCCN2)nc2c1oc1ccc(Cl)cc12 (stereo not drawn),drug sensitivity score,[1],1.5 DSS
same,drug sensitivity score,[2],0 DSS
same,drug sensitivity score,[3],8.1 DSS
O=c1cc(N2CCOCC2)oc2c(-c3ccccc3)cccc12,drug sensitivity score,[1],8.9 DSS
same,drug sensitivity score,[2],9.9 DSS
same,drug sensitivity score,[3],8.3 DSS
OCCn1cc(-c2cnc3nnn(Cc4ccc5ncccc5c4)c3n2)cn1,drug sensitivity score,[1],0 DSS
same,drug sensitivity score,[2],0 DSS
same,drug sensitivity score,[3],0 DSS
Oc1c2ccccc2c2c3c(cccc13)N=N2,drug sensitivity score,[1],1.8 DSS
same,drug sensitivity score,[2],3.4 DSS
same,drug sensitivity score,[3],0.6 DSS
